Measured values taken from patent publication US10100313B2, “Use of Mcoln-1 modulators to regulate cell migration” (INSTITUT CURIE, priority 2014, dated 2018).
“Also recorded” adds a separate entry of the source.

How the values were obtained:
Format in all cases: cell-based, mouse
dendritic cells [1] = test: Mapping assay of polymerized actin in migrating Lifeact dendritic cells; details: immature DCs
Description: (§1) Mouse bone-marrow cells were cultured during 10-12 days in medium supplemented with fetal calf serum and granulocyte-macrophage colony stimulating factor-containing supernatant obtained from transfected J558 cells, as previously described (Faure-Andre et al, 2008, Science, 322, 1705-10). For migration or mapping assays (see below), cells at day 10-12 were activated with 100 ng/ml of LPS (mature cells, LPS DCs), for 30 min, then rinsed 3 times with complete media and put into the channels. Counterpart immature cells for these experiments are treated in the same condition, but in absence of LPS.
Lifeact dendritic cells (nucleofected or not) were incubated for 30 min in […] Hoechst-containing medium, washed 3 times and 10^5 cells per well were loaded and incubated from 4 h to overnight to allow their entry into micro-channels (section was 8×5 μm). After entry, cells were imaged at least for 16 hours on an epifluorescence video-microscope Nikon TiE microscope equipped with a cooled CCD camera (HQ2, Photometrics) with a 20× objective. Images were acquired every 3 minutes. […] Furthermore for each cell, spatial coordinates of the nuclei were measured and ratio between the mean actin density at the front and at the back of the nucleus was computed. […]

dendritic cells [2] = test: Flow cytometry analysis of CD86 levels (DC activation/maturation); details: immature and LPS-matured cells, 5 or 10 μM
Description: The following reagents were used for imaging experiments: WGA AlexaFluor-647 and Hoechst (both from Life Technologies). Micro-channels were coated with Fibronectin (Sigma). Cell activation was performed with LPS (Sigma). For flow cytometry the following antibodies were used: anti-CD86 (GL1 clone, 553692) and a Rat IgG2a,κ isotype control (553930) from BD Biosciences.
as §1
Cells were resuspended in staining buffer (PBS BSA 2%) and stained 30 min at 4° C. with the indicated antibodies. Cells were then washed 3 times and resuspended in staining buffer. All Facs experiments were carried on an Accuri flow cytometer (BD Biosciences).

dendritic cells [3] = test: Migration assay in micro-channels
Description: as §1
Micro-channels were prepared as previously described (Faure-Andre et al, 2008, Science, 322, 1705-10; Heuze et al., 2011, Methods Mol Biol., 769, 415-434). They were incubated with 10 μg/ml fibronectin alone for 1 h and washed with PBS.
For migration assay, cells were loaded in micro-channels (section 5×5 μm) and imaged at least for 16 hours on an epifluorescence video-microscope Nikon TiE microscope equipped with a cooled CCD camera (HQ2, Photometrics) with a 10× objective, one transmission phase image taken every 2 minutes. Kymograph extraction and instantaneous velocity analysis were performed using a homemade program as described previously (Faure-Andre et al, 2008, Science, 322, 1705-10).

Substance: MLSA1
- actin polymerization at the cell center/cell rear (dendritic cells [1]): enriched at their rear; also recorded: partially induces
- fraction of time spent by DCs with actin at their front (dendritic cells [1]; compared to immature control DCs): decreased
- CD86 levels (cell activation / LPS-induced maturation) (dendritic cells [2]): No effect; also recorded: does not activate immature cells, nor prevent the LPS-induced maturation
- cell velocity (dendritic cells [3]; immature DCs): increases
- persistence (dendritic cells [3]; immature DCs): increases
- cell velocity (dendritic cells [3]; mature cells (LPS DCs)): does not further increase
- persistence (dendritic cells [3]; mature cells (LPS DCs)): does not further increase
